According to patent US4200646A, “Method of controlling the growth of microorganisms using nitroalkyl thiocyanates” (International Minerals & Chemical Corporation, priority 1979, dated 1980):
Values after ≈ are worked out from the molar mass of the structure shown. “Also recorded” adds a separate entry of the source. Where two headings read alike, the source gives them in different places.

How the values were obtained:
microorganisms = test: Control of growth of microorganisms in metal working fluids; conditions: 500-1000 ppm or more
bacteria and fungi = test: Antimicrobial activity against bacteria and fungi; format: cell-based
[1] = LD50 in mice by oral administration; conditions: mouse, in vivo
Method: The LD50 in mice by oral administration was determined to be 500 mg/kg.

Streptococcus fecalis = test: Tube dilution method, minimum inhibitory concentration; format: cell-based
Mycobacterium ranae = test: as above; format: cell-based
microbial contamination = test: Microbial contamination of cutting oil emulsion in use; conditions: emulsion with P-2216 0.1, light mineral oil 20, water 76.9, emulsifying agent 3 parts
Method: A cutting oil emulsion is prepared according to the following formula: […]
Light mineral oil 20 parts

Candida albicans = test: Tube dilution method, minimum inhibitory concentration; format: cell-based
Penicillium sp. = test: as above; format: cell-based
Escherichia coli = test: as above; format: cell-based
[2] = tested on: Streptococcus hemolyticus; test: as above; format: cell-based; conditions: Streptococcus pyogenes
Pseudomonas aeruginosa = test: as above; format: cell-based
Shigella dysenteriae = test: as above; format: cell-based; conditions: pH 7.3, read-out: Inhibitory Concn (minimum inhibitory concentration)
Aspergillus niger = test: as above; format: cell-based
[3] = tested on: Pasteurella pseudotuberculosis; test: microbe, parasite or virus in culture; format: cell-based; conditions: Yersinia pseudotuberculosis, pH 7.3, read-out: Inhibitory Concn (minimum inhibitory concentration)
Aspergillus fumigatus = test: Tube dilution method, minimum inhibitory concentration; format: cell-based
Staphyloccus aureus = test: as above; format: cell-based
[4] = pH 5.6, read-out: Inhibitory Concn (minimum inhibitory concentration)
[5] = pH 7.3, read-out: Inhibitory Concn (minimum inhibitory concentration)
[6] = Sabouraud broth pH 5.6, range between highest concentration permitting growth and lowest preventing growth, read-out: Inhibitory Concn (minimum inhibitory concentration)
[7] = trypticase soya broth pH 7.3, range between highest concentration permitting growth and lowest preventing growth, read-out: Inhibitory Concn (minimum inhibitory concentration)

For `CCC(SC#N)[N+](=O)[O-]` (centres unmarked) [1-nitropropyl thiocyanate], the “control of growth of microorganisms in metal working fluids” value (“control of growth of microorganisms” for short) (microorganisms) was “controls the growth of microorganisms for a prolonged period” and the “antimicrobial activity (in words)” value (bacteria and fungi) was “effective against a wide spectrum of bacteria and fungi”.
`CC(C)(SC#N)[N+](=O)[O-]` [Example P-2216, 1-methyl-1-nitroethyl thiocyanate] gave an LD50 ([1]; mice, oral administration, read-out: LD50) of 500 mg/kg, an MIC (Streptococcus fecalis; Streptococcus, pH 7.3, read-out: Inhibitory Concn (minimum inhibitory concentration)) of 50 to 100 µg/mL (≈ 342 to 684 µM) and an MIC (Mycobacterium ranae; Mycobacterium, pH 7.3, read-out: Inhibitory Concn (minimum inhibitory concentration)) of 1 to 10 µg/mL (≈ 6.84 to 68.4 µM). The “freedom from microbial contamination when used as a cutting oil” value (microbial contamination) was “remains free from microbial contamination for a long period of time”, the MIC (Candida albicans; [4]) was 1 to 10 µg/mL (≈ 6.84 to 68.4 µM) and the MIC (Penicillium sp.; Penicillium, pH 5.6, read-out: Inhibitory Concn (minimum inhibitory concentration)) was 10 to 50 µg/mL (≈ 68.4 to 342 µM). For the same compound, the MIC (Escherichia coli; [5]) was 10 to 50 µg/mL (≈ 68.4 to 342 µM), the MIC [2, 5] was 50 to 100 µg/mL (≈ 342 to 684 µM) and the MIC (Pseudomonas aeruginosa; [5]) was 10 to 50 µg/mL (≈ 68.4 to 342 µM). The MIC (Shigella dysenteriae) was 10 to 50 µg/mL (≈ 68.4 to 342 µM), the MIC (Aspergillus niger; [4]) was 10 to 50 µg/mL (≈ 68.4 to 342 µM) and the MIC [3] was 1 to 10 µg/mL (≈ 6.84 to 68.4 µM). It also gave an MIC (Aspergillus fumigatus; [4]) of 1 to 10 µg/mL (≈ 6.84 to 68.4 µM) and an MIC (Staphyloccus aureus; [5]) of 1 to 10 µg/mL (≈ 6.84 to 68.4 µM).
In the case of `N#CSC[N+](=O)[O-]` [nitromethyl thiocyanate], the “control of growth of microorganisms” value (microorganisms) is reported as “controls the growth of microorganisms for a prolonged period” and the “antimicrobial activity (in words)” value (bacteria and fungi) is reported as “effective against a wide spectrum of bacteria and fungi”.
With `N#CSC1([N+](=O)[O-])CCCCC1` [Example P-2217, 1-nitrocyclohexyl thiocyanate] the “control of growth of microorganisms” value (microorganisms) was “controls the growth of microorganisms for a prolonged period”, the LD50 ([1]; oral, species not restated in Example 5 (mice in Example 1), read-out: oral LD50) was 150 mg/kg and the MIC (Streptococcus fecalis; Streptococcus fecalis, trypticase soya broth pH 7.3, range between highest concentration permitting growth and lowest preventing growth, read-out: Inhibitory Concn (minimum inhibitory concentration)) was 50 to 100 µg/mL (≈ 268 to 537 µM). It also gave an MIC (Mycobacterium ranae; Mycobacterium ranae, trypticase soya broth pH 7.3, range between highest concentration permitting growth and lowest preventing growth, read-out: Inhibitory Concn (minimum inhibitory concentration)) of 1 to 10 µg/mL (≈ 5.37 to 53.7 µM), an MIC (Candida albicans; [6]) of 10 to 50 µg/mL (≈ 53.7 to 268 µM) and an MIC (Penicillium sp.; Penicillium sp., Sabouraud broth pH 5.6, range between highest concentration permitting growth and lowest preventing growth, read-out: Inhibitory Concn (minimum inhibitory concentration)) of 10 to 50 µg/mL (≈ 53.7 to 268 µM). For the same compound, the MIC (Escherichia coli; [7]) was 10 to 50 µg/mL (≈ 53.7 to 268 µM), the MIC ([2]; Streptococcus hemolyticus, trypticase soya broth pH 7.3, range between highest concentration permitting growth and lowest preventing growth, read-out: Inhibitory Concn (minimum inhibitory concentration)) was 50 to 100 µg/mL (≈ 268 to 537 µM) and the MIC (Pseudomonas aeruginosa; [7]) was 10 to 50 µg/mL (≈ 53.7 to 268 µM). For the same compound, the MIC (Shigella dysenteriae) was 50 to 100 µg/mL (≈ 268 to 537 µM), the MIC (Aspergillus niger; [6]) was 10 to 50 µg/mL (≈ 53.7 to 268 µM) and the MIC [3] was 10 to 50 µg/mL (≈ 53.7 to 268 µM). For the same compound, the MIC (Aspergillus fumigatus; [6]) was 1 to 10 µg/mL (≈ 5.37 to 53.7 µM), the MIC (Staphyloccus aureus; Staphyloccus aureus, trypticase soya broth pH 7.3, range between highest concentration permitting growth and lowest preventing growth, read-out: Inhibitory Concn (minimum inhibitory concentration)) was 1 to 10 µg/mL (≈ 5.37 to 53.7 µM) and the “antimicrobial activity (in words)” value (bacteria and fungi) was “effective against both bacteria and fungi; also recorded: effective against a wide spectrum of bacteria and fungi”.
For `CC(SC#N)[N+](=O)[O-]` (centres unmarked) [1-nitroethyl thiocyanate], the “control of growth of microorganisms” value (microorganisms) was “controls the growth of microorganisms for a prolonged period” and the “antimicrobial activity (in words)” value (bacteria and fungi) was “effective against a wide spectrum of bacteria and fungi”.
